Earlier results as cited in patent US20260124184A1, “ONCE DAILY ALDOSTERONE SYNTHASE INHIBITOR (R)-(+)-5-(P-CYANOPHENYL)-5,6,7,8-TETRAHYDROIMIDAZO[L,5-A]PYRIDINE” (priority 2022, published 2026).

Target: aldosterone synthase (Homo sapiens, UniProt P19099)
Conditions: ee of (R) form ≥99%; per WO 2018/078049; cited from earlier work

Sequence of aldosterone synthase (P19099 25-503, species assumed): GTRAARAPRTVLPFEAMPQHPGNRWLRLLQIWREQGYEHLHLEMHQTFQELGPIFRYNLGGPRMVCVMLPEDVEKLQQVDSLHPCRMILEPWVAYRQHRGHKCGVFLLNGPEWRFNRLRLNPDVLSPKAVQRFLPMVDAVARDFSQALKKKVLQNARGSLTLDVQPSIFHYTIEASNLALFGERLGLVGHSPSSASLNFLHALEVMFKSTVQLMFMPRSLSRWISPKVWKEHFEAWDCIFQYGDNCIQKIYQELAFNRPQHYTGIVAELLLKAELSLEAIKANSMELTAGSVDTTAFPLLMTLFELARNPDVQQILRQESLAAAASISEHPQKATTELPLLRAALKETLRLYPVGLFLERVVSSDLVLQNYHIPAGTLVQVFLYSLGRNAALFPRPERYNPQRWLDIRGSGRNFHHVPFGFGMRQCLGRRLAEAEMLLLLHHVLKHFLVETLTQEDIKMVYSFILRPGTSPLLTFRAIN

## N#Cc1ccc([C@H]2CCCc3cncn32)cc1 [(R)-(+)-5-(p-cyanophenyl)-5,6,7,8-tetrahydroimidazo[1,5-a]pyridine]
  aldosterone synthase inhibition, potency: low nanomolar
  aldosterone synthase inhibition, selectivity: selective
